Experimental data from patent US11464791B2, “Use of paricalcitol in the treatment of inflammatory anaemia” (priority 2014, dated 2022).
Like-named read-outs stand apart in the source and are kept apart here.

Legend:
[1] = test system: transferrin saturation index (TSI); test: Study A: evolution of the transferrin saturation index (TSI); assay type: in vivo, human; conditions: for average TSI: subgroup with IV Fe (n=25)
Procedure: (§1) A controlled prospective study in which the evolution of ESA doses, Fe supplement doses, evolution of Fe, of transferrin, of ferritin, of the transferrin saturation index, of the haemoglobin levels and of the non-conventional markers associated with inflammatory anaemia was determined: Hepcidin and IL-6 and analysis of the hormones associated with a improved erythropoietic response. The variability of the haemoglobin was also assessed. A total of 31 patients were included in this study. The ESAs used by the patients were Epoetin beta (Neorecormon) and CERA.
(§2) This study is a controlled, observational and analytical prospective-type study of cases and controls. The study lasted six months. In the first three months the ESA dose titrations were obtained and, in the remaining three months corresponded to the maintenance phase. The data shown in the present invention form part of the MIR-EPO Study (EudraCT: 2009-015511-40) https://www.clinicaltrialsregister.eu. The design of the MIR-EPO Study assessed patients being treated with an erythropietic agent (Epoetin-beta-Neorecormon or CERA). In said patients, the differences between the groups with and without paricalcitol were analysed, due to which the results shown in the present invention related specifically to the following groups: • Group of patients being treated with paricalcitol (paricalcitol+ESA), i.e. combined treatment, and • Group of patients being treated exclusively with an ESA.
The administration of iron supplements shall always be intravenous with the aim of maintaining a transferrin saturation index (TSI %) greater than 20%.

[2] = Study B: cross-sectional comparison of paricalcitol and calcitriol (ESA dose, Hb, PTHi, ferrokinetics); assay type: in vivo, human; conditions: for ESA doses required: Epoetin beta; for PTHi: median (p25-p75)
Procedure: A cross-sectional study designed to assess the differences between calcitriol and paricalcitol associated with the use of ESAs, both used in the treatment of secondary hyperparathyroidism. A total of 92 patients from the Chronic Dialysis Unit of the Hospital Universitario Son Espases (HUSE) in Palma de Mallorca and from the Chronic Haemodialysis Unit of the Policlínica Miramar were included. A total of 31 patients were treated with calcitriol and a total of 61 patients were treated with paricalcitol. The ESA analysed was Epoetin beta (Neorecormon).
In order to determine whether treatment with calcitriol is capable of giving rise to the same results obtained in the treatment with paricalcitol, the groups of patients included in Study B were analysed (Table 2), one of the groups treated with paricalcitol (n=61) and the other group treated with calcitriol (n=31).

[3] = Study C: cross-sectional study of paricalcitol dose versus ESA dose and Hb levels; assay type: in vivo, human; conditions: paricalcitol 5-10 μg/week
Source text: A cross-sectional study designed to assess the distribution of the dose of paricalcitol (μg/week) associated with a greater erythropoietic response. That is, the aim is to assess the predictive capacity of the doses of paricalcitol (μg/week) over the doses of ESA (UI/week), in addition to assessing the doses of paricalcitol to predict Hb levels (g/dl) and identify the doses of paricalcitol associated with certain Hb levels in a range between 10 and 12 g/dl, which are the levels considered to be optimum.
A total of 58 patients were included in this study. The ESA analysed was Epoetin beta (Neorecormon).
In order to determine the most adequate doses required to obtain the best Hb levels and reduce the need for ESAs, a regression analysis was performed between the Hb levels, the doses of ESAs and the dose of paricalcitol in the group of patients of Study C (FIG. 2). As can be observed in said FIG. 2, the doses comprised between 5 and 10 μg were associated to a reduced need for ESAs. This trend was modified on increasing the doses of paricalcitol, due to which, according to this regression model, the administration of doses of paricalcitol higher than 10 μg/week predicts a greater use of ESAs.

[4] = Study A (MIR-EPO): ESA dose requirements; assay type: in vivo, human
Procedure: as §1
as §2, with “The data shown in the present invention form part of the MIR-EPO Study (EudraCT: 2009-015511-40) https://www.clinicaltrialsregister.eu.” left out, “ESA. […]” for “ESA.”

PTH = conditions: oral paricalcitol, cited from earlier work
plasma iron (Fe^2+) = test: Study A: evolution of iron (Fe^2+) levels; assay type: in vivo, human; conditions: for Fe^2+ levels: subgroup with IV Fe supplements (n=25)
Procedure: as §1, §2

Erythropoietin = test: Study A: plasma erythropoietin levels (ELISA); assay type: in vivo, human
Procedure: Analytical determinations: all the blood samples were analysed in the central laboratory of the HUSE, applying the methodology regularly used in clinical practice: • Hb: Haemoglobin was determined on a monthly basis prior to the dialysis session and corresponding weekday. The analysis of the samples was performed using flow cytometry (CELL-DYN Sapphire®—Abbott) at the central laboratory of the HUSE. • Klotho: Human Soluble α-Klotho Assay Kit—IBL. ELISA (Enzyme-LinkedImmunoSorbentAssay) sandwich type using two types of high-specificity anti-Human Klotho antibodies (67G3 and 91F1). Using TeTraMeltilBenzidina (TMB) as a chromogeneous agent. • Hepcidin: DGR HepcidinProhormone ELISA kit. ELISA (Enzyme-LinkedImmunoSorbentAssay) of competitive type with anti-Pro-Hepcidin (polyclonal) antibodies. • IL-6: Quantikine ELISA Human IL-6 immunoassay. ELISA (Enzyme-LinkedImmunoSorbentAssay) sandwich type using specific antibodies for mouse monoclonal and polyclonal IL-6. • Erythropoietin: Quantikine IVD ELISA Human Erythropoietin Immunoassay. […]
The non-conventional inflammatory parameters were determined in months 3 and 6 of the study, due to the fact that it is considered that the first three months of the study were dedicated to ESA dose titration and the last three months to the maintenance phase, as mentioned previously. […]

[5] = paricalcitol >10 μg/dialysis, haemodialysis patients; cited from earlier work

**Q.** For `C=C1CC[C@H](O)C/C1=C/C=C1\CCC[C@]2(C)[C@@H]([C@H](C)CCCC(C)(C)O)CC[C@@H]12` [hidroferol, calcifediol], which “effect over TSI” value ([1]; 6 months) is on record?
**A.** not beneficial

**Q.** What about the TSI levels ([1]; month 0) of the same molecule?
**A.** 29±12%

**Q.** What about the TSI levels ([1]; month 3) of the same molecule?
**A.** 33±14%

**Q.** And the TSI levels ([1]; month 6)?
**A.** 25±9%

**Q.** Which Ferritin [2] does the source give for `C=C1/C(=C\C=C2/CCC[C@]3(C)[C@@H]([C@H](C)CCCC(C)(C)O)CC[C@@H]23)C[C@@H](O)C[C@@H]1O` [calcitriol] here?
**A.** 168 (111-298) ng/ml

**Q.** What about the Hb levels [2] of the same molecule?
**A.** 11.10 ± 1.16 g/dL

**Q.** And the TSI % [2]?
**A.** 24 ± 10%

**Q.** And the ESA doses required [2]?
**A.** 9000 UI/week

**Q.** And the PTHi [2]?
**A.** 358 (230-623) pg/ml

**Q.** Which “plasma Hb levels predicted by regression” value [3] does the source give for `C[C@H](/C=C/[C@H](C)C(C)(C)O)[C@H]1CC[C@H]2/C(=C/C=C3C[C@@H](O)C[C@H](O)C3)CCC[C@]12C` [paricalcitol, 19-nor-1, 25-(OH) 2-vitamin D2] here?
**A.** 10-12 g/dl

**Q.** What about the “average TSI” value ([1]; month 0) of the same molecule?
**A.** 25±6%

**Q.** And the “average TSI” value ([1]; month 3)?
**A.** 24±5%

**Q.** And the “average TSI” value ([1]; month 6)?
**A.** 30±19%

**Q.** And the “evolution of ESA requirements” value ([4]; months 0-6)?
**A.** significant decrease

**Q.** And the “lower dose of ESA versus group treated exclusively with ESA” value ([4]; subgroup with IV Fe, month 6)?
**A.** 24%

**Q.** What about the Ferritin [2] of the same molecule?
**A.** 494 (244-701) ng/ml

**Q.** And the Hb levels [2]?
**A.** 11.89 ± 0.13 g/dL

**Q.** And the TSI % [2]?
**A.** 30 ± 10%

**Q.** And the ESA doses required [2]?
**A.** approximately 4000 UI/week

**Q.** What about the PTHi [2] of the same molecule?
**A.** 276 (170-449) pg/ml

**Q.** What about the PTH levels (PTH; after treatment) of the same molecule?
**A.** 93 pg/mL

**Q.** And the PTH levels (PTH; basal level)?
**A.** 147 pg/mL

**Q.** And the “reduction of PTH levels with respect to the basal level” value (PTH)?
**A.** ~40%

**Q.** What about the “Iron (Fe^2+) levels” value (plasma iron (Fe^2+); month 0) of the same molecule?
**A.** 68 ± 23 µg/dL

**Q.** And the “Iron (Fe^2+) levels” value (plasma iron (Fe^2+); month 3)?
**A.** 68 ± 28 µg/dL

**Q.** And the “Iron (Fe^2+) levels” value (plasma iron (Fe^2+); month 6)?
**A.** 66 ± 37 µg/dL

**Q.** And the “Fe^2+ levels” value (plasma iron (Fe^2+); month 0)?
**A.** 61 ± 16 µg/dL

**Q.** What about the “Fe^2+ levels” value (plasma iron (Fe^2+); month 3) of the same molecule?
**A.** 57 ± 14 µg/dL

**Q.** And the “Fe^2+ levels” value (plasma iron (Fe^2+); month 6)?
**A.** 68 ± 37 µg/dL

**Q.** What about the plasma erythropoietin levels (Erythropoietin; month 3) of the same molecule?
**A.** 8.6 (4.6-16.7) mUI/ml

**Q.** And the plasma erythropoietin levels (Erythropoietin; month 6)?
**A.** 20.2 (7.2-33.6) mUI/ml

**Q.** What about the calcium levels [5] of the same molecule?
**A.** 9.8 mg/dL
